Type in all cases: cell-based, Pseudomonas aeruginosa
The test system of data set [1] is established P. aeruginosa biofilms. The data set can be described thus: DiSC3(5) membrane depolarization assay on biofilm. The conditions noted are these: maximum percentage at final incubation time, 10% Triton X-100 reference. How it is done: Membrane depolarization was followed using the method described earlier (Torrent M. et al. 2008). Briefly, bacterial cells were grown at 37° C. to an OD600=0.2, centrifuged at 5000×g for 7 min, washed with 5 mM Hepes at pH 7.2 containing 20 mM glucose, and resuspended in 5 mM Hepes-KOH, 20 mM glucose, and 100 mM KCl at pH 7.2 to an OD600=0.05 and 200 μl were transferred to a microtiter plate for planktonic assays. For biofilm assay, 24 h formed P. aeruginosa biofilm in a 96-well microtiter plate were washed three times with sterile PBS. Afterwards P. aeruginosa biofilms were washed with 5 mM Hepes at pH 7.2 containing 20 mM glucose, and rinsed in 5 mM Hepes-KOH, 20 mM glucose, and 100 mM KCl at pH 7.2. In both cases, DiSC3(5) was added to a final concentration of 0.4 μM and changes in the fluorescence were continuously recorded after addition of peptides at 10 μM in a Victor3 plate reader. A maximum reference value for total depolarization is calculated for Triton X-100 at 10%. Alternatively, changes in the fluorescence were continuously recorded after addition of a serially diluted protein/peptides from 50 to 0.1 μM. The peptide concentration required to achieve half of total and total membrane depolarization after 40 min incubation time was estimated from nonlinear regression analysis as previously described (Torrent M. et al. 2010)
(§1) Thereupon, the antimicrobial mechanism of action of the RNase 3 derived peptide on P. aeruginosa biofilms was further characterized with the depolarization and permeabilization assays. As applied for the P. aeruginosa planktonic culture, the fluorescent DisC3(5) assay was also used here in order to monitor the depolarization activity of the studied protein and peptides against established biofilms. Therefore, we have measured the half depolarization action (ED50), and the total depolarization activity expressed as a percentage (Table 7). […] Similar results were obtained for the Sytox Green permeabilization assay, where the total permeabilization effect was hindered for all the AMPs tested, and between two to ten times higher concentrations were required to achieve half of the biofilm cell permeabilizing effect in comparison to the planktonic cells.

Data set [2] in a line: Biofilm cell mortality, BacTiter-Glo luminescent assay. Conditions: 24 h formed biofilm; 4 h at 37° C.; 10% Triton X-100 as maximum reference; N.D. = not detected at 50 μM; read-out: Biofilm cell mortality (%max). On the procedure: Bacterial viability was assayed using the BacTiter-Glo™ microbial cell viability kit. Briefly, protein/peptides were dissolved in 10 mM sodium phosphate, 0.1M buffer, pH 7.5, serially diluted from 50 to 0.1 μM and tested in a 96-well microtiter plate containing P. aeruginosa planktonic (OD600˜0.2) or 24 h formed biofilm for 4 h at 37° C. Fifty microliters of BacTiter-Glo™ reagent was added to each well according to the manufacturer's instructions and incubated at room temperature for 15 min. Luminescence was read on a Victor3 plate reader with a 3-s integration time. Fifty percent (ED50) and total inhibitory concentrations were calculated by fitting the data to a dose-response curve.
As a first approach, the biofilm cell viability was monitored using the BacTiter-Glo™ luminescent assay. Therefore, the antimicrobial action of the studied AMPs was determined on already established P. aeruginosa biolfilms (FIG. 1 and Table 6). […] However, for all the active peptides, the concentrations needed to produce an equivalent effect in biofilms were between 2 to 10 times higher than in planktonic cultures. […] At the same time, we applied the crystal violet technique to assess the peptide ability to disperse pre-established P. aeruginosa biofilms.
Biofilm formation assay was modified from the previously described protocol (Huedo P. et al. 2014). Briefly, overnight cultures of P. aeruginosa were centrifuged at 5000×g for 5 min, washed and adjusted to an OD600=0.1 in tryptic soy medium (TSB). Two hundred microliters of the bacterial suspension were dispensed in each well of a polystyrene 96-well microtiter plate (Greiner Bio-one, France). The plate was incubated at 37° C. on an orbital shaker (30 rpm). The media was exchanged with fresh pre-warmed TSB after 4 h, in order to remove the non-attached bacteria. After 24 h incubation, the formation of biofilm was then evaluated using the crystal violet staining technique (Stepanovic S. et al. 2000). Briefly, the plates were washed three times with PBS, fixed at 60° C. for 1 h, and stained for 15 min with 200 μl of 0.1% crystal violet. After the dye was discarded, plates were rinsed in PBS and allowed to dry for 30 min at 37° C. Crystal violet was dissolved in 250 μl of 95% ethanol for 15 min, and the OD570 of the extracted dye was measured using a Victor3 plate reader (Perkin-Elmer, Waltham, Mass.).

The test system of data set [3] is planktonic P. aeruginosa. The data set can be described thus: Minimum inhibitory concentration (MIC100) assay. Conditions: 4 h at 37° C., mean ± SEM, max 50 μM. On the procedure: First the peptide ability to inhibit the proliferation of P. aeruginosa cells was assessed by determining the minimum inhibitory concentration (MIC100).
MIC100 of each protein/peptide was determined as described (Torrent M. et al. 2012). Bacteria were incubated at 37° C. overnight in Luria-Bertani broth (LB) and diluted to give approximately 5×10^5 CFU/mL. In each assay protein/peptide serially diluted from 50 to 0.2 μM in 10 mM sodium phosphate, 0.1 M NaCl, buffer pH 7.5 were added to 100 μl bacteria dilution and incubated for 4 h at 37° C. Subsequently, samples were plated onto Petri dishes and incubated at 37° C. overnight. MIC100 values were determined as function of the total growth inhibition by the protein and peptides, from two independent experiments performed in triplicate.

The test system of data set [4] is established P. aeruginosa biofilms. The data set can be described thus: SYTOX Green membrane permeabilization assay on biofilm. Conditions: maximum percentage at final incubation time, 10% Triton X-100 reference. On the procedure:
Membrane permeabilization was followed using the method SYTOX Green Fluorescence membrane permeabilization assay. In the planktonic assay, bacterial cells were grown at 37° C. to an OD600=0.2, centrifuged at 5000×g for 5 min, and resuspended in 1×PBS to an OD600=0.2. An aliquot of 200 μl was then transferred to a microtiter plate. For biofilm assay, 24 h formed P. aeruginosa biofilm in a 96-well microtiter plate were washed three times with sterile PBS. SYTOX Green was added to a final concentration of 1 μM and incubated 15 min in darkness. Changes in the fluorescence were continuously recorded after addition of a serially diluted protein/peptides from 50 to 0.1 μM in a Victor3 plate reader. The peptide concentration required to achieve half of total and total membrane permeabilization achieved after 40 min was estimated from nonlinear regression analysis as previously described (Pulido D. et al. Antimicrob Agents Chemother 2013). A maximum reference value was taken for Triton X-100 at 10%.
as §1

SMILES strings stand for the structures. Values after ≈ are worked out from the molar mass of the structure shown. Residues, ends and D or L forms follow the SMILES beside them.

With `CC[C@H](C)[C@H](NC(=O)[C@H](CCCCN)NC(=O)[C@H](CCC(=O)O)NC(=O)[C@H](CCCCN)NC(=O)[C@H](CO)NC(=O)[C@H](CCCCN)NC(=O)[C@H](CCCNC(=N)N)NC(=O)[C@H](Cc1ccccc1)NC(=O)[C@H](Cc1ccccc1)NC(=O)[C@H](CC(=O)O)NC(=O)CNC(=O)[C@H](CC(C)C)NC(=O)[C@@H](N)CC(C)C)C(=O)NCC(=O)N[C@@H](CCCCN)C(=O)N[C@@H](CCC(=O)O)C(=O)N[C@@H](Cc1ccccc1)C(=O)N[C@@H](CCCCN)C(=O)N[C@@H](CCCNC(=N)N)C(=O)N[C@H](C(=O)N[C@H](C(=O)N[C@@H](CCC(N)=O)C(=O)N[C@@H](CCCNC(=N)N)C(=O)N[C@H](C(=O)N[C@@H](CCCCN)C(=O)N[C@@H](CC(=O)O)C(=O)N[C@@H](Cc1ccccc1)C(=O)N[C@@H](CC(C)C)C(=O)N[C@@H](CCCNC(=N)N)C(=O)N[C@@H](CC(N)=O)C(=O)N[C@@H](CC(C)C)C(=O)N[C@H](C(=O)N1CCC[C@H]1C(=O)N[C@@H](CCCNC(=N)N)C(=O)N[C@H](C(=O)N[C@@H](CCC(=O)O)C(=O)N[C@@H](CO)C(N)=O)[C@@H](C)O)C(C)C)[C@@H](C)CC)C(C)C)[C@@H](C)CC` [LL-37], in data set [1], the “Depolarization Mean % ± SEM” value is reported as 31.85 ± 1.15%. Further, in data set [2], the mortality (usually the percentage killed) amounted to 64 ± 3.33%. The same compound gave an MIC100 in data set [3] of 6.00 ± 0.05 µM (≈ 27 µg/mL). In data set [4], the “Permeabilization Mean % ± SEM” value is given as 24.21 ± 3.71%.

As for `CC[C@H](C)[C@H](NC(=O)CNC(=O)[C@@H](NC(=O)[C@H](CCCCN)NC(=O)[C@H](CCCCN)NC(=O)[C@H](Cc1ccccc1)NC(=O)[C@H](CC(C)C)NC(=O)[C@H](CCCCN)NC(=O)[C@H](Cc1c[nH]c2ccccc12)NC(=O)[C@@H](N)CCCCN)[C@@H](C)CC)C(=O)NCC(=O)N[C@@H](C)C(=O)N[C@H](C(=O)N[C@@H](CC(C)C)C(=O)N[C@@H](CCCCN)C(=O)N[C@H](C(=O)N[C@@H](CC(C)C)C(=O)N[C@H](C(=O)N[C@H](C(=O)NCC(=O)N[C@@H](CC(C)C)C(=O)N1CCC[C@H]1C(=O)N[C@@H](C)C(=O)N[C@@H](CC(C)C)C(=O)N[C@H](C(=O)N[C@@H](CO)C(N)=O)[C@@H](C)CC)[C@@H](C)O)[C@@H](C)O)C(C)C)C(C)C` [CA-M], the “Depolarization Mean % ± SEM” value in data set [1] was 39.09 ± 2.46%. For the same compound, the mortality in data set [2] was found to be 54.3 ± 5.51%. The compound further yielded an MIC100 in data set [3] of 6.00 ± 0.05 µM (≈ 16.8 µg/mL). Also, the “Permeabilization Mean % ± SEM” value in data set [4] was 23.01 ± 1.13%.

In data set [3], `CC[C@H](C)[C@H](NC(=O)[C@H](CCC(N)=O)NC(=O)CN)C(=O)N[C@H](C(=O)N[C@@H](CC(N)=O)C(=O)N[C@@H](CC(C)C)C(=O)N[C@@H](CCCCN)C(=O)N[C@@H](C)C(=O)N[C@@H](CO)C(=O)N[C@@H](CC(C)C)C(=O)N[C@@H](CC(=O)O)C(=O)N[C@@H](CC(C)C)C(=O)N[C@@H](CC(C)C)C(N)=O)[C@@H](C)CC` [GL-13, GQIINLKASLDLL-NH2] (H-GQIINLKASLDLL-NH2) had an MIC100 above 50 µM.

For the origin of these results see patent publication US10487117B2, “Antimicrobial peptide for nosocomial infections” (priority 2015, dated 2019).
